Reference: the supplement of paper PMC10307832

How the values were obtained:
Experiment in all cases: relative viability (nuclei count vs DMSO), 5 days (fraction); higher = more cells survive
FH535 + Bortezomib = compound: CC1=C(C=CC(=C1)[N+](=O)[O-])NS(=O)(=O)C2=C(C=CC(=C2)Cl)Cl [FH535] + CC(C)C[C@H](NC(=O)[C@H](Cc1ccccc1)NC(=O)c1cnccn1)B(O)O [Bortezomib] (partner 0.002 µM)
How it was run: (§1)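 Values are medians from duplicate plates. Each reflects relative viability, defined as the nuclei count of treated wells over that of vehicle wells. Lung cancer cell lines in 1536-well plates were pin-tool dosed one day after seeding with one drug alone or with a fixed anchor-drug dose plus five library-drug doses (not always all listed) in √10 steps, then fixed, stained and imaged at 4× after 5 days.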

FH535 + Linsitinib = compound: CC1=C(C=CC(=C1)[N+](=O)[O-])NS(=O)(=O)C2=C(C=CC(=C2)Cl)Cl [FH535] + C[C@]1(O)C[C@@H](c2nc(-c3ccc4ccc(-c5ccccc5)nc4c3)c3c(N)nccn32)C1 [Linsitinib] (partner 1 µM)
How it was run: as §1

FH535 + Alpelisib = compound: CC1=C(C=CC(=C1)[N+](=O)[O-])NS(=O)(=O)C2=C(C=CC(=C2)Cl)Cl [FH535] + Cc1nc(NC(=O)N2CCC[C@H]2C(N)=O)sc1-c1ccnc(C(C)(C)C(F)(F)F)c1 [Alpelisib] (partner 2 µM)
How it was run: as §1

FH535 + Crizotinib = compound: CC1=C(C=CC(=C1)[N+](=O)[O-])NS(=O)(=O)C2=C(C=CC(=C2)Cl)Cl [FH535] + C[C@@H](Oc1cc(-c2cnn(C3CCNCC3)c2)cnc1N)c1c(Cl)ccc(F)c1Cl [Crizotinib] (partner 1 µM)
How it was run: as §1

FH535 + Pictilisib = compound: CC1=C(C=CC(=C1)[N+](=O)[O-])NS(=O)(=O)C2=C(C=CC(=C2)Cl)Cl [FH535] + CS(=O)(=O)N1CCN(Cc2cc3nc(-c4cccc5[nH]ncc45)nc(N4CCOCC4)c3s2)CC1 [Pictilisib] (partner 1 µM)
How it was run: as §1

Cell Line | relative viability (FH535 + Bortezomib; first compound 0.04 µM) | relative viability (FH535 + Bortezomib; first compound 0.1265 µM) | relative viability (FH535 + Bortezomib; first compound 0.4 µM) | relative viability (FH535 + Bortezomib; first compound 1.265 µM) | relative viability (FH535 + Linsitinib; first compound 0.04 µM) | relative viability (FH535 + Linsitinib; first compound 0.1265 µM) | relative viability (FH535 + Linsitinib; first compound 0.4 µM) | relative viability (FH535 + Linsitinib; first compound 1.265 µM) | relative viability (FH535 + Alpelisib; first compound 0.04 µM) | relative viability (FH535 + Alpelisib; first compound 0.1265 µM) | relative viability (FH535 + Alpelisib; first compound 0.4 µM) | relative viability (FH535 + Alpelisib; first compound 1.265 µM) | relative viability (FH535 + Crizotinib; first compound 0.04 µM) | relative viability (FH535 + Crizotinib; first compound 0.1265 µM) | relative viability (FH535 + Crizotinib; first compound 0.4 µM) | relative viability (FH535 + Crizotinib; first compound 1.265 µM) | relative viability (FH535 + Pictilisib; first compound 0.04 µM) | relative viability (FH535 + Pictilisib; first compound 0.1265 µM) | relative viability (FH535 + Pictilisib; first compound 0.4 µM) | relative viability (FH535 + Pictilisib; first compound 1.265 µM)
201T | 1.02 | 1.05 | 1.1 | 1.03 | 1.05 | 1.03 | 0.95 | 0.964 | 1.02 | 1.01 | 1.02 | 1 | 0.99 | 1.09 | 0.975 | 0.875 | 0.662 | 0.726 | 0.632 | 0.627
A549 |  |  |  |  | 0.497 | 0.627 | 0.641 | 0.568 | 0.842 | 0.754 | 0.72 | 0.705 | 0.749 | 0.783 | 0.631 | 0.41 | 0.553 | 0.511 | 0.494 | 0.398
A-427 | 0.967 | 0.982 | 0.829 | 0.908 | 1.13 | 1.18 | 1.07 | 0.981 | 1.08 | 1.04 | 1.02 | 1.04 | 0.929 | 0.908 | 0.784 | 0.721 | 0.642 | 0.83 | 0.551 | 0.685
ABC-1 | 0.331 | 0.26 | 0.33 | 0.34 | 0.963 | 0.836 | 0.864 | 0.788 | 1.18 | 1.25 | 0.954 | 1.29 | 1.19 | 0.866 | 1.2 | 0.618 | 0.601 | 0.878 | 0.702 | 0.735
BEN | 0.755 | 0.615 | 0.647 | 0.475 | 0.811 | 0.976 | 0.918 | 0.508 | 0.929 | 0.998 | 0.868 | 0.748 | 0.813 | 0.859 | 0.792 | 0.535 | 0.548 | 0.617 | 0.459 | 0.41
CAL-12T | 0.846 | 0.936 | 0.626 | 0.268 | 0.871 | 0.796 | 0.712 | 0.598 | 1.21 | 1.16 | 1.06 | 1.01 | 0.817 | 0.691 | 0.719 | 0.556 | 0.392 | 0.362 | 0.29 | 0.334
COR-L23 | 0.845 | 1.04 | 0.816 | 0.587 | 0.926 | 0.889 | 0.722 | 0.581 | 0.799 | 0.718 | 0.681 | 0.499 | 0.626 | 0.656 | 0.57 | 0.434 | 0.734 | 0.816 | 0.624 | 0.531
COR-L 105 | 0.804 | 0.822 | 0.653 | 0.675 | 0.903 | 0.933 | 0.894 | 0.91 | 1.09 | 1.17 | 0.789 | 0.971 | 0.751 | 0.885 | 0.792 | 0.86 | 0.27 | 0.385 | 0.384 | 0.394
ChaGo-K-1 | 0.915 | 1.24 | 0.95 | 0.589 |  |  |  |  |  |  |  |  | 1.05 | 1.19 | 1.09 | 0.708 | 0.55 | 1.07 | 0.658 | 0.436
EKVX | 1.04 | 0.762 | 1 | 0.704 | 1.03 | 1.05 | 0.967 | 0.854 | 0.825 | 0.976 | 0.823 | 0.75 | 0.824 | 1.07 | 0.998 | 0.609 | 0.411 | 0.401 | 0.411 | 0.425
EMC-BAC-2 | 0.961 | 1.13 | 1.06 | 1.03 | 0.822 | 0.873 | 0.771 | 0.753 | 0.731 | 0.762 | 0.716 | 0.632 | 0.766 | 0.799 | 0.739 | 0.677 | 0.506 | 0.507 | 0.544 | 0.526
EPLC-272H | 0.788 | 0.967 | 0.925 | 0.848 | 1.04 | 1.17 | 1.03 | 1.05 | 0.951 | 0.978 | 1.02 | 0.963 | 0.943 | 1.07 | 0.868 | 0.838 | 0.263 | 0.349 | 0.299 | 0.249
H3255 | 0.614 | 0.827 | 0.708 | 0.409 | 0.87 | 1.04 | 0.884 | 0.727 | 0.468 | 0.805 | 0.705 | 0.633 | 0.896 | 0.806 | 0.853 | 0.705 | 0.352 | 0.466 | 0.445 | 0.413
HARA | 1.03 | 0.987 | 1.11 | 0.73 | 0.774 | 0.889 | 1.03 | 0.584 | 0.785 | 0.817 | 0.817 | 0.561 | 1.06 | 1.08 | 0.929 | 0.52 | 0.429 | 0.665 | 0.368 | 0.458
HCC-15 | 0.975 | 0.874 | 0.896 | 0.713 | 0.879 | 0.862 | 0.884 | 0.595 | 0.864 | 0.819 | 0.85 | 0.646 | 0.798 | 0.819 | 0.747 | 0.52 | 0.672 | 0.668 | 0.674 | 0.594
HCC-44 | 0.952 | 0.811 | 0.856 | 0.652 | 0.704 | 0.647 | 0.705 | 0.469 | 0.779 | 0.843 | 0.741 | 0.566 | 0.908 | 0.755 | 0.75 | 0.682 | 0.67 | 0.556 | 0.564 | 0.538
